Results: patent US6740650B2, “Heterocyclic cytotoxic agents” (Rutgers, The State University of New Jersey, priority 2002, dated 2004)
pIC50: −log10 of the molar value.

Legend:
human topoisomerase I = target: T1, human topoisomerase I (Homo sapiens, UniProt P11387); assay: Test A. Topoisomerase I-mediated DNA cleavage assay; format: biochemical; details: concentration relative to 2,3-dimethoxy-8,9-methylenedioxybenzo[i]phenanthridine (=1.0) producing same cleavage (approx. 10% DNA fragmentation); 30 min, 37° C.
T1 construct: unnamed fusion partner (recombinant fusion protein, T7 expression system); made in house; host or cells: E. coli
T1 sequence (P11387 1-765): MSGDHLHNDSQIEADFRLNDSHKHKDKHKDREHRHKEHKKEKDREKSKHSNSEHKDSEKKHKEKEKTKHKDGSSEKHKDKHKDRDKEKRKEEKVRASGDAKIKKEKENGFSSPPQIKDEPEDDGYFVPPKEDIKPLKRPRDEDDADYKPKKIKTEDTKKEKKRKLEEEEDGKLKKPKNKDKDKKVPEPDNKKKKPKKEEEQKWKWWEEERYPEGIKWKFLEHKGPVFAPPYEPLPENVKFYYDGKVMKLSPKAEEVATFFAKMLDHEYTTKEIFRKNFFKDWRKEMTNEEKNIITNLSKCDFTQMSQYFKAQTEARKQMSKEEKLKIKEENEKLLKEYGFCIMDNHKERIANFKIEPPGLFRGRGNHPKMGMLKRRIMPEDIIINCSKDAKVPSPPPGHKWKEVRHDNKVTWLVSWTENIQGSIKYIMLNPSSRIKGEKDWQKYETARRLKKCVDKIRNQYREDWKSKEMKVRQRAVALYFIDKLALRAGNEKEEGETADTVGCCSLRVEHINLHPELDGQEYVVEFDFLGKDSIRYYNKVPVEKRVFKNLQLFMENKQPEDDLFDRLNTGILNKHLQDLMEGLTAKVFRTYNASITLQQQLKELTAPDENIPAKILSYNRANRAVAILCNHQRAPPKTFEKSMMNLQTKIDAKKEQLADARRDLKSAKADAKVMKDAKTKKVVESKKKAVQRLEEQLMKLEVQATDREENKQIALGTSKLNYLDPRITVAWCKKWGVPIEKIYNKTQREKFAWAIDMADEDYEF
Text: Test A. Topoisomerase I-mediated DNA Cleavage Assay
Human topoisomerase I was expressed in E. Coli and isolated as a recombinant fusion protein using a T7 expression system as described previously (Makhey, D. et al., Bioorg. Med. Chem., 2000, 8, 1-11). DNA topoisomerase I was purified from calf thymus gland as reported previously (Maniatis, T., et al., J. Molecular Cloning, a Laboratory Manual, Cold Spring Harbor Laboratory, Cold Spring Harbor, N.Y., 149-185). Plasmid YepG was also purified by the alkali lysis method followed by phenol deproteination and CsCl/ethidium isopycnic centrifugation method as described (Maniatis, T.; Fritsch, E. F.; Sambrook, J. Molecular Cloning, a Laboratory Manual; Cold Spring Harbor Laboratory: Cold Spring Harbor, N.Y. 1982; pp 149-185).^102 The end-labeling of the plasmid was accomplished by digestion with a restriction enzyme followed by end-filling with Klenow polymerase as previously described (Liu, L. F.; Rowe, T. C.; Yang, L.; Tewey, K. M.; Chen, G. L. “Cleavage of DNA by mammalian topoisomerase II,” J Biol. Chem. 1983, 258, 15365).^103 Cleavage assays were performed as previously reported (B. Gatto et al. Cancer Res., 1996, 56, 2795-2800).^13 The drug and the DNA in presence of topoisomerase I was incubated for 30 minutes at 37° C. After development of the gels, typically 24-hour exposure was used to obtain autoradiograms outlining the extent of DNA fragmentation. Topoisomerase I-mediated DNA cleavage values are reported as REC, Relative Effective Concentration, i.e. concentrations relative to 2,3-dimethoxy-8,9-methylenedioxybenzo[i]phenanthridine, whose value is arbitrarily assumed as 1.0, that are able to produce the same cleavage on the plasmid DNA in the presence of human topoisomerase I. Relative potency was based upon the relative amount of drug needed to induce approximately 10% DNA fragmentation. Assays were performed under the direction of Dr. L. F. Liu, Department of Pharmacology, The University of Medicine and Dentistry of New Jersey, Robert Wood Johnson Medical School, Piscataway, N.J. Data from Test A for representative compounds of the invention is shown in Table 1.

KB3-1 (oral) = assay: MTT-microtiter plate tetrazolinium cytotoxicity assay, KB3-1; format: cell-based
KBV-1 (mdr-1) = assay: MTT-microtiter plate tetrazolinium cytotoxicity assay, KBV-1; format: cell-based
KBH1.0 + V (H033342r.) = assay: MTT-microtiter plate tetrazolinium cytotoxicity assay, KBH1.0 + V; format: cell-based; details: continuous exposure 3-4 days
HELA (cervical) = assay: MTT-microtiter plate tetrazolinium cytotoxicity assay, HELA; format: cell-based; details: continuous exposure 3-4 days
HCT116 (colon) = assay: MTT-microtiter plate tetrazolinium cytotoxicity assay, HCT116; format: cell-based
ZR-75-1 (breast) = assay: MTT-microtiter plate tetrazolinium cytotoxicity assay, ZR-75-1; format: cell-based
[1] = tested on: human lymphoblast RPMI 8402; assay: MTT-microtiter plate tetrazolinium cytotoxicity assay, RPMI 8402; format: cell-based; details: continuous exposure 3-4 days
Protocol: (§1) Test B. Inhibition of Cell Growth: MTT-microtiter Plate Tetrazolinium Cytotoxicity Assay (RPMI 8402, CPT-K5, U937, U937/CR Cells)
(§2) The cytotoxicity was determined using the MTT-microtiter plate tetrazolinium cytotoxicity assay (MTA) (See Chen A. Y. et al. Cancer Res. 1993, 53, 1332; Mosmann, T. J., J. Immunol. Methods 1983, 65, 55; and Carmichael, J. et al. Cancer Res. 1987, 47, 936). The human lymphoblast RPMI 8402 and its camptothecin-resistant variant cell line, CPT-K5 were provided by Dr. Toshiwo Andoh (Anchi Cancer Research Institute, Nagoya, Japan) (see Andoh, T.; Okada, K. “Drug resistance mechanisms of topoisomerase I drugs,” Adv. in Pharmacology 1994, 29B, 93). Human U-937 myeloid leukemia cells and U-937/CR cells were described by Rubin et al., J. Biol. Chem., 269, 2433-2439 (1994). The cytotoxicity assay was performed by using 96-well microtiter plates using 2000 cells/well, in […] of growth medium. Cells were grown in suspension at 37° C. in 5% CO2 and maintained by regular passage in RPMI medium supplemented with 10% heat-inactivated fetal bovine serum, L-glutamine (2 mM), penicillin (100U/mL), and streptomycin (0.1 mg/mL). For determination of IC50, cells were exposed continuously for 3-4 days to varying concentrations of drug, and MTT assays were performed at the end of the fourth day. […] All assays were performed at least twice in 6 replicate wells. All assays were performed under the direction of Dr. L. F. Liu, Department of Pharmacology, The University of Medicine and Dentistry of New Jersey, Robert Wood Johnson Medical School, Piscataway, N.J. Representative data is shown in Tables 2 and 3.

[2] = tested on: CPT-K5 (camptothecin-resistant variant of RPMI 8402); assay: MTT-microtiter plate tetrazolinium cytotoxicity assay, CPT-K5; format: cell-based; details: Homo sapiens, continuous exposure 3-4 days
Protocol: as §1, §2

[3] = tested on: Human U-937 myeloid leukemia cells; assay: MTT-microtiter plate tetrazolinium cytotoxicity assay, U937; format: cell-based; details: continuous exposure 3-4 days
Protocol: as §1, §2

U-937/CR cells = assay: MTT-microtiter plate tetrazolinium cytotoxicity assay, U937/CR; format: cell-based; details: Homo sapiens, continuous exposure 3-4 days
Protocol: as §1, §2

[4] = Homo sapiens, KB 3-1, continuous exposure 3-4 days
[5] = Homo sapiens, KB-V1, continuous exposure 3-4 days
[6] = Homo sapiens, HCT-116, continuous exposure 3-4 days
[7] = Homo sapiens, ZR-75-1, continuous exposure 3-4 days

| Compound | Topoisomerase I-mediated DNA cleavage (REC, Relative Effective Concentration) (human topoisomerase I) | pIC50 (KB3-1 (oral); [4]) | pIC50 (KBV-1 (mdr-1); [5]) | pIC50 (KBH1.0 + V (H033342r.)) | pIC50 (HELA (cervical); Homo sapiens, HeLa) | pIC50 (HCT116 (colon); [6]) | pIC50 (ZR-75-1 (breast); [7]) | pIC50 [1] | pIC50 [2] | pIC50 [3] | pIC50 (U-937/CR cells) | melting point [°C] | pIC50 (KB3-1 (oral); continuous exposure 3-4 days) | pIC50 (KBV-1 (mdr-1); continuous exposure 3-4 days) | pIC50 (HELA (cervical)) | pIC50 (HCT116 (colon); continuous exposure 3-4 days) | pIC50 (ZR-75-1 (breast); continuous exposure 3-4 days) |
| --- | --- | --- | --- | --- | --- | --- | --- | --- | --- | --- | --- | --- | --- | --- | --- | --- | --- |
| COc1cc2ccc3c4ccccc4nnc3c2cc1OC [Compound 6, 2,3-Dimethoxy-dibenzo[c,h]cinnoline] | 5 | 5.22 | 5.40 | 5.30 | 5.22 | 5.49 | 5.40 | 5.52 | 5.00 | 5.52 | 5.52 | – | – | – | – | – | – |
| COc1cc2ccc3c4cc(OCc5ccccc5)c(OC)cc4nnc3c2cc1OC [Compound 42, 9-Benzyloxy-2,3,8-trimethoxydibenzo[c,h]cinnoline] | – | – | – | – | – | – | – | 4.42 | 4.21 | < 4.00 | 4.40 | 244 to 246 | – | – | – | – | – |
| CC[C@@]1(O)C(=O)OCc2c1cc1n(c2=O)Cc2cc3ccccc3nc2-1 [CPT] | – | – | – | 8.15 | – | – | – | – | – | – | – | – | 8.22 | 8.22 | 8.40 | 8.52 | 8.40 |
| COc1cc2ccc3c4cc5c(cc4nnc3c2cc1OC)OCO5 [Compound 14, 2,3-Dimethoxy-8,9-methylenedioxy-dibenzo[c,h]cinnoline] | 0.01 | 7.15 | 7.10 | 7.22 | 7.30 | 7.46 | 7.40 | 7.22 | 5.22 | 7.22 | 5.52 | – | – | – | – | – | – |
| COc1ccc2ccc3c4cc5c(cc4nnc3c2c1)OCO5 [Compound 44, 3-Methoxy-8,9-methylenedioxydibenzo[c,h]cinnoline] | – | – | – | – | – | – | – | 6.30 | 5.89 | 4.37 | 6.05 | 259 to 261 | – | – | – | – | – |
| CCOc1ccc(-c2nc3ccc(-c4nc5ccc(N6CCN(C)CC6)cc5[nH]4)cc3[nH]2)cc1 [HO33342] | – | – | – | < 5.00 | – | – | – | – | – | – | – | – | 6.60 | 5.52 | 6.22 | 6.66 | 7.22 |
| COc1ccc2c(ccc3c4cc5c(cc4nnc23)OCO5)c1 [Compound 43, 2-Methoxy-8,9-methylenedioxydibenzo[c,h]cinnoline] | – | – | – | – | – | – | – | < 4.00 | 4.28 | 4.42 | 4.52 | 258 to 260 | – | – | – | – | – |
| COc1ccc2c(c1)nnc1c3cc(OC)c(OC)cc3ccc21 [Compound 60, 2,3,8-Trimethoxydibenzo[c,h]cinnoline] | 2 | – | – | – | – | – | – | 5.70 | 5.40 | 5.72 | 5.60 | 244 to 246 | – | – | – | – | – |
| COc1cc2nnc3c4cc(OC)c(OC)cc4ccc3c2cc1O [Compound 34, 9-Hydroxy-2,3,8-trimethoxydibenzo[c,h]cinnoline] | – | – | – | – | – | – | – | < 4.00 | < 4.00 | < 4.00 | < 4.00 | – | – | – | – | – | – |
| CC[C@]1(O)C[C@@H]2CN(CCc3c([nH]c4ccccc34)[C@@](C(=O)OC)(c3cc4c(cc3OC)N(C)[C@H]3[C@@](O)(C(=O)OC)[C@H](OC(C)=O)[C@]5(CC)C=CCN6CC[C@]43[C@@H]65)C2)C1 [VBS, Vinblastine] | – | 8.52 | 6.40 | 8.66 | 8.70 | 8.52 | 8.52 | – | – | – | – | – | – | – | – | – | – |
| COc1cc2ccc3c4cc(OC)c(OC)cc4nnc3c2cc1OC [Compound 19, 2,3,8,9-Tetramethoxy-dibenzo[c,h]cinnoline] | >100 | – | – | – | – | – | – | 5.00 | < 5.00 | 5.00 | 4.70 | – | – | – | – | – | – |
| COc1ccc2nnc3c4cc(OC)c(OC)cc4ccc3c2c1 [Compound 61, 2,3,9-Trimethoxydibenzo[c,h]cinnoline] | 10 | – | – | – | – | – | – | 5.40 | 4.51 | 5.52 | 5.22 | 215 to 217 | – | – | – | – | – |
